For one assay, the system named is Neutrophil. Nature of the assay: Inhibition of superoxide production in human neutrophils. The class given is functional, cell-based.
Another assay relates to HL-60. The assay is described as follows: Antiproliferative activity against human HL60 cells. The class given is functional, cell-based.

The structures appear in SMILES notation.

The IC50 is the concentration needed to halve the response being measured. Consider `C=CC(C)(C)c1cc2c(cc1O)C=CC(C)(C)O2`, for which the IC50 in the assay with Neutrophil amounted to 238 µM; in the assay with HL-60, 5.6 µM.
For the compound `C=CC(C)(C)c1ccc(O)c(CC=C(C)C)c1`, the figures for the half-maximal inhibitory concentration (IC50) in the assay on Neutrophil and with HL-60 were 29 µM and 2.7 µM, respectively.
Turning to `C=CC(C)(C)C1=CC(=O)C(CC=C(C)C)=CC1=O`, the IC50 with Neutrophil is 2.1 µM; with HL-60, 0.34 µM.
Consider `O=C1C2=C(C=CC(C(=O)O)N2)C(=O)C2=C1NCCS2(=O)=O` (stereo not drawn), for which the IC50 with Neutrophil was determined as 1.5 µM; in the assay with HL-60 it was 73 µM.

For the origin of these results see ChEMBL document CHEMBL1141439, “An antiproliferative bis-prenylated quinone from the New Zealand brown alga Perithalia capillaris” (J Nat Prod, 2007).
